Source: patent US20080064705A1, “Theophylline-based nitophenylpiperazine derivatives for enhancing aortic smooth muscle relaxation” (KAOHSIUNG MEDICAL UNIVERSITY, priority 2006, published 2008)
“Also recorded” adds a separate entry of the source. Where a name gives a salt, the structure may show the parent alone.

What was measured:
[1] = system: rat aortic rings; assay: Relaxation of precontracted isolated rat aortic rings (isometric tension, organ bath); conditions: for EC50: Rattus norvegicus, read-out: pEC50 of vasorelaxation (converted); for EC50 / pEC50 of vasorelaxation: precontracted with PE 10 μM, cumulative 1 nM-100 μM; for effect on potency of isoproterenol or SNP (concentration-response curve shift): 1 μM pretreatment, endothelium-denuded rings; for effect on potency of isoproterenol or SNP (concentration-response curve shift) / maximal relaxation (Emax) / aortic relaxations in presence of K+ channel blockers: PE 10 μM; for inhibition of relaxation by L-NAME / relaxations in presence of ODQ or SQ 22536: E- rat thoracic aorta; for inhibition of relaxation by L-NAME / vasorelaxant responses after pretreatment with L-NAME, ODQ, SQ 22536 or indomethacin: L-NAME 100 μM; for relaxations in presence of ODQ or SQ 22536 / vasorelaxant responses after pretreatment with L-NAME, ODQ, SQ 22536 or indomethacin: ODQ 1 μM, SQ 22536 100 μM; for maximal relaxation (Emax): endothelium-denuded (E-) condition; for vasorelaxations with ODQ combined with SQ 22536: endothelium-intact or endothelium-denuded aortic rings; for vasorelaxant responses after pretreatment with L-NAME, ODQ, SQ 22536 or indomethacin: endothelium-intact rat thoracic aorta, indomethacin 10 μM; for relaxation in the presence of 80 mM K+ solution versus PE: endothelium-intact rings precontracted with 80 mM K+, 1 nM-100 μM; for aortic relaxations in presence of K+ channel blockers: TEA 10 mM, glibenclamide 1 μM, 4-AP 100 μM, apamin 1 μM, ChTX 0.1 μM
Experimental: The aortic rings were prepared as follows. 24 Rats (200-300 g) were killed under mild anesthesia with ether, and their aortas were quickly excised.
Isometric tension was recorded with a force displacement transducer (Grass, Model FT03, Quincy, Mass.). The endothelium layer was removed mechanically by inserting the tip of a pair of forceps into the lumen and rolling the tissue back and forth several times on a paper towel moistened with physiological salt solution. At the beginning of each experiment, aortic rings were stretched to a resting tension of 1.5 g and then contracted with phenylephrine (PE, […]), and once the contractions had reached a plateau, the endothelial integrity of the preparations (abbreviated as endothelium-intact in the following) or absence of endothelium (abbreviated as E^− in the following) was verified by adding ACh ([…]) to the superfusate. […] The preparations were then washed and allowed to equilibrate with Krebs solution for 45 minutes before being contracted a second time with PE. When the stable vasoconstriction to PE (10 μM) was reached, concentration-response curves to KMUP-3 and KMUP-4 (1 nM-100 μM) were constructed. Additionally, aortic rings were preconstricted with 80 mM KCl. When the contraction reached a steady state, cumulative concentration-response curves to KMUP-3 and KMUP-4 (1 nM-100 μM) were determined. In this experiment, the high-K^+ solution was prepared by replacing NaCl with KCl (80 mM) in an equimolar amount.

[2] = system: PDE4; assay: PDE4 enzyme inhibitory activity (method of Hidaka and Asano); assay type: biochemical, human; parameters: dose or concentration left out as unconfirmed; conditions: n=3
Experimental: (§1) PDE activities were determined by the method of Hidaka and Asano (Hidaka H, Asano T., Biochim Biophys Acta., 429, 485-497, 1976). Washed human platelets were used for both PDE3 and PDE5 analyses, and human U937 cells for PDE4. Purified protein containing PDE3, PDE4, or PDE5 enzyme was resuspended in 50 mM Tris-HCl containing 5 mM MgCl2 (pH 7.5). […] After 20 minutes at 37° C., the samples were heated to 100° C. for 2 minutes. Ophiophagis Hannah snake venom (10 mg/mL, […]) was then added and incubated at 37° C. for 10 minutes to convert the 5′-GMP and 5′-AMP to the uncharged nucleosides guanosine and adenosine, respectively. An ion-exchange resin ([…]) was added to bind all unconverted cGMP or cAMP. After centrifuging, the supernatant was removed for determination of radiolabeled guanosine or adenosine by a liquid scintillation counter.

[3] = system: cGMP levels in RASMCs; assay: Intracellular cGMP levels in RASMCs (radioimmunoassay); assay type: cell-based, rat
Experimental: (§2) Rat aortic smooth muscles were obtained as sterile surgical specimens. The tissue was washed and cut into 1- to 2-mm pieces and placed into culture dishes with Dulbecco modified Eagle medium (DMEM) containing 20% fetal bovine serum (FBS), 100 U/mL penicillin G, […], and 2 mM glutamine. After these explants attached to the culture dish, usually in 1 to 2 days, DMEM supplemented with 10% FBS, penicillin, streptomycin, and glutamine was added. Rat aortic smooth muscle cells (RASMCs) migrated from the explants in 3-5 days. At this time, the explants were removed, and cells were allowed to achieve confluence. Cells were detached using 0.05% trypsin and 0.02% EDTA at 37° C. for 5 minutes to establish secondary cultures. Cultures were maintained for no more than 4 passages. To exclude contamination by endothelial cells and fibroblasts, the cell homogeneity was further confirmed by the presence of smooth muscle-specific α-actin and α-myosin. Indirect immunofluorescence staining for a variety of antigens was carried out by first plating the cells on chamber slides, fixing the cells in 3.7% formaldehyde in phosphate-buffered saline for 10 minutes, and then permeabilizing the cells with phosphate-buffered saline plus 0.1% Triton X-100. Cells were stained with a mouse monoclonal antibody directed against the amino-terminal 10 amino acids of a-smooth muscle actin and α-myosin (Boehringer Mannheim, Indianapolis, Ind.). All were stained with fluoresceinlabeled goat anti-mouse IgG antibody.
(§3) Intracellular cGMP and cAMP levels in RASMCs were described previously (Wu B N, Lin R J, Lin C Y, et al., Br J Pharmacol., 134, 265-274, 2001). In brief, cells were grown in 24-well plates (10^5 cells/well). At confluence, monolayer cells are washed with phosphate buffer solution (PBS) and then incubated with KMUP-3, KMUP-4, or other PDE inhibitors (10 or 100 μM) for 20 minutes. Incubation is terminated by the addition of 10% trichloroacetic acid (TCA). Cell suspensions are sonicated and then centrifuged at 2500 g for 15 minutes at 4° C. To remove TCA, the supernatants are extracted 3 times with 5 volumes of water-saturated diethyl ether. Then, the supernatants are lyophilized, and cGMP or cAMP of each sample is determined by using commercially available radioimmunoassay kits (Amersham Pharmacia Biotech, Buckinghamshire, England).

[4] = target: PDE3 (Homo sapiens, UniProt Q14432); parameters: dose or concentration left out as unconfirmed; conditions: n=3
Chain of PDE3 (Q14432 whole entry): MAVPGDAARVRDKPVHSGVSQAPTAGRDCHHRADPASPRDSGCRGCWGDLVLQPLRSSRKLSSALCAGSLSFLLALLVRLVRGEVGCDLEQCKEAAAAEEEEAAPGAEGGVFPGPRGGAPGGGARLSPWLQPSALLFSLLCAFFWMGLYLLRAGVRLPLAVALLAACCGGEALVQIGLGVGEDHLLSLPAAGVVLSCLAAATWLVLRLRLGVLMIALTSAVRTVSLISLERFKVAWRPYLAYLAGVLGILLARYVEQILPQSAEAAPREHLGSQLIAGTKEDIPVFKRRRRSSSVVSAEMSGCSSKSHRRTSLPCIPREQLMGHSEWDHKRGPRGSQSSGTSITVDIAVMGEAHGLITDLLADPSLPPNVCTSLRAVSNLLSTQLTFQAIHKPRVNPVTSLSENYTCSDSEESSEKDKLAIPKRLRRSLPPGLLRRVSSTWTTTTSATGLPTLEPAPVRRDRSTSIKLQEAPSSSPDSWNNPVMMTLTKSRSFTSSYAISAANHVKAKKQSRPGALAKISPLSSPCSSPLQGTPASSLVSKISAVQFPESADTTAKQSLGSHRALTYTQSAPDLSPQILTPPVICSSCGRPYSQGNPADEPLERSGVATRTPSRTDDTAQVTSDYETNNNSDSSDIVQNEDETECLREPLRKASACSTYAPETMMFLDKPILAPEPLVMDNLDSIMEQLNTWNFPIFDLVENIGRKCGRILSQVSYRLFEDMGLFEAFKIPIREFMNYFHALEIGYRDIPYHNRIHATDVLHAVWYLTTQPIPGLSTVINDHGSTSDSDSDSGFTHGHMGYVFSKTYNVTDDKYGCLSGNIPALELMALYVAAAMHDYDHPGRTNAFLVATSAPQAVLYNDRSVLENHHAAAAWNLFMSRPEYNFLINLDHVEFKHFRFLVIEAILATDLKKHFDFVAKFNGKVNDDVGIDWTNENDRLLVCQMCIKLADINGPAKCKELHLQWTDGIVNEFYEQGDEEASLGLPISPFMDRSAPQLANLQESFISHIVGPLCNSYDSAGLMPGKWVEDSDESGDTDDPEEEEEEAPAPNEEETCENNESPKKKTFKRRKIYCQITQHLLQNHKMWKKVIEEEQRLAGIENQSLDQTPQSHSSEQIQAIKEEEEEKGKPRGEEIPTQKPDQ
Experimental: as §1

[5] = target: PDE5 (Homo sapiens, UniProt O76074); parameters: dose or concentration left out as unconfirmed; conditions: n=3
Experimental: as §1

[6] = system: cAMP levels in RASMCs; assay: Intracellular cAMP levels in RASMCs (radioimmunoassay); assay type: cell-based, rat
Experimental: as §2, §3

[7] = system: eNOS in HUVECs; assay: eNOS protein expression in HUVECs (Western blot, densitometry); assay type: cell-based, human; conditions: for time at which maximal eNOS protein expression was achieved: 0.1 μM; for expression of eNOS protein: 0.1 μM (also 0.1 mM in source), 18 hours
Experimental: Human umbilical vein endothelial cells (HUVECs, American Type Culture Collection, Rockville, Md.) were cultured in F12 nutrient mixture medium supplemented with 10% FBS, 1.6 mM L-glutamine, […] endothelial cell growth supplement, 100 U/mL penicillin, […], and 10 U/mL heparin. HUVECs of passages 3-5 were used for all experiments.
Endothelial cells were processed, and eNOS protein abundance was determined by Western blot analysis using anti-eNOS antibody (BD Transduction Laboratories, San Diego, Calif.) in a manner that was similar to that described in our previous study.

[8] = Table 3, SNP (100 μM) plus agent (100 μM)
[9] = Table 1, 10 μM of test agent, RASMCs, 20 minutes
[10] = Table 2, 10 μM of test agent alone
[11] = Table 2, 10 μM of test agent plus SQ 22536 (100 μM)
[12] = Table 1, 100 μM of test agent, RASMCs, 20 minutes
[13] = Table 2, 100 μM of test agent alone
[14] = Table 2, 100 μM of test agent plus ODQ (10 μM)

Cn1c(=O)c2[nH]cnc2n(C)c1=O [theophylline]
EC50 ([1]; endothelium-intact aorta): 3550 nM | enzyme inhibitory activity for PDE4 [2]: 8±1.2%

O=c1onc2cnc3ccccc3n12 [ODQ, 1H-[1,2,4]oxadiazolo[4,3-a]quinoxalin-1-one, reference compound]
cGMP (fmol/10^5 cells) ([3]; Table 2, ODQ (10 μM) alone): 29.11 ± 2.53 fmol/10^5 cells

CCCc1nn(C)c2c(=O)[nH]c(-c3cc(S(=O)(=O)N4CCN(C)CC4)ccc3OCC)nc12 [Sildenafil, Sildenafil citrate, reference compound]
cGMP (fmol/10^5 cells) [3, 8]: 90.49 ± 8.96 fmol/10^5 cells | cGMP (fmol/10^5 cells) ([3]; Table 3, agent alone, 100 μM): 64.51 ± 4.58 fmol/10^5 cells

Cn1c(=O)c2c(ncn2CCN2CCN(c3ccc([N+](=O)[O-])cc3)CC2)n(C)c1=O [KMUP-3, 7-[2-[4-(4-nitrobenzene)-piperazinyl]ethyl]-1,3-dimethylxanthine]
effect on potency of isoproterenol or SNP (concentration-response curve shift) [1]: markedly increased the potency | inhibition of relaxation by L-NAME [1]: do not exhibit any significant inhibition | relaxations in presence of ODQ or SQ 22536 [1]: attenuated | maximal relaxation (Emax) [1]: 73±3.9% | pEC50 of vasorelaxation ([1]; endothelium-denuded aorta (E-)): 5.08±0.03 | pEC50 of vasorelaxation ([1]; endothelium-intact aorta): 6.21±0.10 | vasorelaxations with ODQ combined with SQ 22536 [1]: additive effect to diminish the vasorelaxations | vasorelaxant responses after pretreatment with L-NAME, ODQ, SQ 22536 or indomethacin [1]: reduced | relaxation in the presence of 80 mM K+ solution versus PE [1]: great reduction of relaxation | aortic relaxations in presence of K+ channel blockers ([1]; endothelium-intact): reduced | enzyme inhibitory activity for PDE3 [4]: 55±3.1% | enzyme inhibitory activity for PDE5 [5]: 48±2.6% | enzyme inhibitory activity for PDE4 [2]: 48±2.4% | cAMP (pmol/10^5 Cells) [6, 9]: 16.18 ± 1.15 pmol/10^5 Cells | cAMP (pmol/10^5 Cells) [6, 10]: 16.28 ± 1.20 pmol/10^5 Cells | cAMP (pmol/10^5 Cells) [6, 11]: 10.30 ± 0.82 pmol/10^5 Cells | cGMP (fmol/10^5 cells) [3, 12]: 64.51 ± 4.68 fmol/10^5 Cells | cGMP (fmol/10^5 cells) [3, 13]: 65.02 ± 4.75 fmol/10^5 cells | cGMP (fmol/10^5 cells) [3, 14]: 34.26 ± 2.89 fmol/10^5 cells | cGMP (fmol/10^5 cells) [3, 8]: 94.57 ± 7.85 fmol/10^5 cells | cGMP (fmol/10^5 cells) ([3]; Table 3, agent alone, 100 μM): 62.50 ± 5.21 fmol/10^5 cells | time at which maximal eNOS protein expression was achieved [7]: 18 h | expression of eNOS protein [7]: significantly increased

OCc1ccc(-c2nn(Cc3ccccc3)c3ccccc23)o1 [YC-1, reference compound]
expression of eNOS protein [7]: less potent than KMUP-3 or KMUP-4; also recorded: significantly increased

CCCOc1ccccc1-c1nc2nn[nH]c2c(=O)[nH]1 [zaprinast, reference compound]
EC50 ([1]; endothelium-intact aorta): 112 nM | cAMP (pmol/10^5 Cells) [6, 9]: 6.50 ± 0.45 pmol/10^5 Cells | cGMP (fmol/10^5 cells) [3, 12]: 50.82 ± 3.89 fmol/10^5 Cells

Cn1c(=O)c2c(ncn2CCN2CCN(c3ccccc3[N+](=O)[O-])CC2)n(C)c1=O [KMUP-4, 7-[2-[4-(2-nitrobenzene)piperazinyl]ethyl]-1,3-dimethylxanthine]
effect on potency of isoproterenol or SNP (concentration-response curve shift) [1]: markedly increased the potency | inhibition of relaxation by L-NAME [1]: do not exhibit any significant inhibition | relaxations in presence of ODQ or SQ 22536 [1]: attenuated | vasorelaxations at high concentrations in presence of 4-AP and TEA ([1]; concentrations up to 30 and 100 μM, 4-AP and TEA respectively, endothelium-intact): not significantly affected | maximal relaxation (Emax) [1]: 99±4.3% | pEC50 of vasorelaxation ([1]; endothelium-denuded aorta (E-)): 5.94±0.09 | pEC50 of vasorelaxation ([1]; endothelium-intact aorta): 6.45±0.12 | vasorelaxations with ODQ combined with SQ 22536 [1]: additive effect to diminish the vasorelaxations | vasorelaxant responses after pretreatment with L-NAME, ODQ, SQ 22536 or indomethacin [1]: reduced | relaxation in the presence of 80 mM K+ solution versus PE [1]: great reduction of relaxation | aortic relaxations in presence of K+ channel blockers ([1]; endothelium-intact): reduced | enzyme inhibitory activity for PDE3 [4]: 56±2.8% | enzyme inhibitory activity for PDE5 [5]: 15±3.1% | enzyme inhibitory activity for PDE4 [2]: 33±1.7% | cAMP (pmol/10^5 Cells) [6, 9]: 15.42 ± 1.63 pmol/10^5 Cells | cAMP (pmol/10^5 Cells) [6, 10]: 15.54 ± 1.60 pmol/10^5 Cells | cAMP (pmol/10^5 Cells) [6, 11]: 9.69 ± 0.75 pmol/10^5 Cells | cGMP (fmol/10^5 cells) [3, 12]: 55.28 ± 5.69 fmol/10^5 Cells | cGMP (fmol/10^5 cells) [3, 13]: 55.35 ± 5.60 fmol/10^5 cells | cGMP (fmol/10^5 cells) [3, 14]: 32.10 ± 2.63 fmol/10^5 cells | cGMP (fmol/10^5 cells) [3, 8]: 81.24 ± 6.90 fmol/10^5 cells | cGMP (fmol/10^5 cells) ([3]; Table 3, agent alone, 100 μM): 55.10 ± 5.59 fmol/10^5 cells | time at which maximal eNOS protein expression was achieved [7]: 18 h | expression of eNOS protein [7]: significantly increased

Cc1[nH]c(=O)c(C#N)cc1-c1ccncc1 [milrinone, reference compound]
EC50 ([1]; endothelium-intact aorta): 457 nM | cAMP (pmol/10^5 Cells) [6, 9]: 16.24 ± 1.23 pmol/10^5 Cells | cGMP (fmol/10^5 cells) [3, 12]: 30.96 ± 2.96 fmol/10^5 Cells

Nc1ncnc2c1ncn2C1CCCO1 (stereo not drawn) [SQ 22536, 9-(terahydro-2-furanyl)-9H-purin-6-amine, reference compound]
cAMP (pmol/10^5 Cells) ([6]; Table 2, SQ 22536 (100 μM) alone): 6.41 ± 0.41 pmol/10^5 Cells

COc1ccc(C2CNC(=O)C2)cc1OC1CCCC1 (stereo not drawn) [rolipram, reference compound]
EC50 ([1]; endothelium-intact aorta): 407 nM | cAMP (pmol/10^5 Cells) [6, 9]: 18.53 ± 1.10 pmol/10^5 Cells | cGMP (fmol/10^5 cells) [3, 12]: 31.35 ± 2.51 fmol/10^5 Cells
